Where a SMILES comes first, the peptide text is derived from it. Side-chain parts run from the residue outwards. [ ]: non-standard residue; d: D form. The star is where a group is joined. d2Nal(N,N-C(O)(CH2)4) = O=C1CCCCN1[C@H](Cc1ccc2ccccc2c1)C(=O)*; d2Nal(N,N-(CH2)3CO) = O=C1CCCN1[C@H](Cc1ccc2ccccc2c1)C(=O)*; Shikimoyl = O=C(C1=C[C@@H](O)[C@@H](O)[C@H](O)C1)*; dPhe(4-Cl) = N[C@H](Cc1ccc(Cl)cc1)C(=O)O; d(hCit) = NC(=O)NCCCC[C@@H](N)C(=O)O; Lys(iPr) = CC(C)NCCCC[C@H](N)C(=O)O; NMeY = CN[C@@H](Cc1ccc(O)cc1)C(=O)O; dCit = NC(=O)NCCC[C@@H](N)C(=O)O; hArg = N=C(N)NCCCC[C@H](N)C(=O)O; d3Pal = N[C@H](Cc1cccnc1)C(=O)O; Nicotinoyl = O=C(c1cccnc1)*

This assay has as its target T1, LHRH (Rattus norvegicus, UniProt P30969).
T1 construct: endogenous in cells
T1 sequence (P30969 1-327): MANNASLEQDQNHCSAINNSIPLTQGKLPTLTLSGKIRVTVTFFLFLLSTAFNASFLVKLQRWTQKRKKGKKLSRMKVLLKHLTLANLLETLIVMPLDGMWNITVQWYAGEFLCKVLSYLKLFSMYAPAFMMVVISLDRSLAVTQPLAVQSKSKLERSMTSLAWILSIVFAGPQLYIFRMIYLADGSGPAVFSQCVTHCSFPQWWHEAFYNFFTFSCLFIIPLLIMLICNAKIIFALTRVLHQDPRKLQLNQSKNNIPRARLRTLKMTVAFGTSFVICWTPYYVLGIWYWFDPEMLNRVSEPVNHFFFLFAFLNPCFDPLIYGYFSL
The experiment in a line: in vitro test for LHRH antagonist potency (pA2). The class given is cell-based. Conditions: negative logarithm of the antagonist concentration required to shift the response curve produced by the agonist leuprolide to two-fold higher concentration. The protocol: Representative compounds of the present invention were evaluated in an in vitro test for LHRH antagonist potency (pA2). The test employed the method detailed in F. Haviv, et al. J. Med. Chem., 32:2340-2344 (1989). The values of pA2 are the negative logarithms of the concentration of the particular antagonist test compound required to shift the response curve produced by the agonist leuprolide to two-fold higher concentration. (Leuprolide is disclosed and claimed in U.S. Pat. No. 4,005,063.) Typically pA2 values of 9.5 or greater are indicative of good LHRH antagonist potency, with values of 10.0 or greater being preferred.
As for `CC(C)C[C@H](NC(=O)[C@@H](CCCNC(N)=O)NC(=O)[C@H](Cc1ccc(O)cc1)N(C)C(=O)[C@H](CO)NC(=O)[C@@H](Cc1cccnc1)NC(=O)[C@@H](Cc1ccc(Cl)cc1)NC(=O)[C@@H](Cc1ccc2ccccc2c1)N1CCCC1=O)C(=O)N[C@@H](CCCNC(=N)N)C(=O)N1CCC[C@H]1C(=O)N[C@H](C)C(N)=O` [Example 1, 5LactD2Nal^1 -D4ClPhe^2 -D3Pal^3 -Ser^4 -NMeTyr^5 -DCit^6 -Leu^7 -Arg^8 -Pro^9 -DAla^10 NH2] ({d2Nal(N,N-(CH2)3CO)}-[dPhe(4-Cl)][d3Pal]S[NMeY][dCit]LRP[dA]-NH2), the Kb was 0.00813 nM.
To `CC(C)C[C@H](NC(=O)[C@@H](CCCCNC(=O)C1=C[C@@H](O)[C@@H](O)[C@H](O)C1)NC(=O)[C@H](Cc1ccc(O)cc1)N(C)C(=O)[C@H](CO)NC(=O)[C@@H](Cc1cccnc1)NC(=O)[C@@H](Cc1ccc(Cl)cc1)NC(=O)[C@@H](Cc1ccc2ccccc2c1)N1CCCC1=O)C(=O)N[C@@H](CCCNC(=N)N)C(=O)N1CCC[C@H]1C(=O)N[C@H](C)C(N)=O` [Example 2, 5LactD2Nal^1 -D4ClPhe^2 -D3Pal^3 -Ser^4 -NMeTyr^5 -DLys(N-epsilon-Shik)^6 -Leu^7 -Arg^8 -Pro^9 -DAla^10 NH2] ({d2Nal(N,N-(CH2)3CO)}-[dPhe(4-Cl)][d3Pal]S[NMeY][dK](Shikimoyl)LRP[dA]-NH2) belongs 0.0263 nM; to `CC(C)C[C@H](NC(=O)[C@@H](CCCCNC(=O)CNC(=O)C1=C[C@@H](O)[C@@H](O)[C@H](O)C1)NC(=O)[C@H](Cc1ccc(O)cc1)N(C)C(=O)[C@H](CO)NC(=O)[C@@H](Cc1cccnc1)NC(=O)[C@@H](Cc1ccc(Cl)cc1)NC(=O)[C@@H](Cc1ccc2ccccc2c1)N1CCCC1=O)C(=O)N[C@@H](CCCNC(=N)N)C(=O)N1CCC[C@H]1C(=O)N[C@H](C)C(N)=O` [Example 3, 5LactD2Nal^1 -D4ClPhe^2 -D3Pal^3 -Ser^4 -NMeTyr^5 -DLys(N-epsilon-Gly-Shik)^6 -Leu^7 -Arg^8 -Pro^9 -DAla^10 NH2] ({d2Nal(N,N-(CH2)3CO)}-[dPhe(4-Cl)][d3Pal]S[NMeY][dK]([Gly-Shikimoyl])LRP[dA]-NH2), 0.0209 nM; to `CC(C)C[C@H](NC(=O)[C@@H](CCCCNC(=O)C1=C[C@@H](O)[C@@H](O)[C@H](O)C1)NC(=O)[C@H](Cc1ccc(O)cc1)N(C)C(=O)[C@H](CO)NC(=O)[C@@H](Cc1cccnc1)NC(=O)[C@@H](Cc1ccc(Cl)cc1)NC(=O)[C@@H](Cc1ccc2ccccc2c1)N1CCCC1=O)C(=O)N[C@@H](CCCCNC(=N)N)C(=O)N1CCC[C@H]1C(=O)N[C@H](C)C(N)=O` [Example 4, 5LactD2Nal^1 -D4ClPhe^2 -D3Pal^3 -Ser^4 -NMeTyr^5 -DLys(N-epsilon-Shik)^6 -Leu^7 -Harg^8 -Pro^9 -DAla^10 NH2] ({d2Nal(N,N-(CH2)3CO)}-[dPhe(4-Cl)][d3Pal]S[NMeY][dK](Shikimoyl)L[hArg]P[dA]-NH2), 0.00692 nM.
The same measure for `CC(C)C[C@H](NC(=O)[C@@H](CCCCNC(=O)CNC(=O)C1=C[C@@H](O)[C@@H](O)[C@H](O)C1)NC(=O)[C@H](Cc1ccc(O)cc1)N(C)C(=O)[C@H](CO)NC(=O)[C@@H](Cc1cccnc1)NC(=O)[C@@H](Cc1ccc(Cl)cc1)NC(=O)[C@@H](Cc1ccc2ccccc2c1)N1CCCC1=O)C(=O)N[C@@H](CCCCNC(=N)N)C(=O)N1CCC[C@H]1C(=O)N[C@H](C)C(N)=O` [Example 5, 5LactD2Nal^1 -D4ClPhe^2 -D3Pal^3 -Ser^4 -NMeTyr^5 -DLys(N-epsilon-Gly-Shik)^6 -Leu^7 -Harg^8 -Pro^9 -DAla^10 NH2] ({d2Nal(N,N-(CH2)3CO)}-[dPhe(4-Cl)][d3Pal]S[NMeY][dK]([Gly-Shikimoyl])L[hArg]P[dA]-NH2): 0.00646 nM; for `CC(C)C[C@H](NC(=O)[C@@H](CCCCNC(=O)c1cccnc1)NC(=O)[C@H](Cc1ccc(O)cc1)N(C)C(=O)[C@H](CO)NC(=O)[C@@H](Cc1cccnc1)NC(=O)[C@@H](Cc1ccc(Cl)cc1)NC(=O)[C@@H](Cc1ccc2ccccc2c1)N1CCCC1=O)C(=O)N[C@@H](CCCCNC(C)C)C(=O)N1CCC[C@H]1C(=O)N[C@H](C)C(N)=O` [Example 7, 5LactD2Nal^1 -D4ClPhe^2 -D3Pal^3 -Ser^4 -NMeTyr^5 -DLys(N-epsilon-Nic)^6 -Leu^7 -Lys(N-epsilon-Isopropyl)^8 -Pro^9 -DAla^10 NH2] ({d2Nal(N,N-(CH2)3CO)}-[dPhe(4-Cl)][d3Pal]S[NMeY][dK](Nicotinoyl)L[Lys(iPr)]P[dA]-NH2): 0.0372 nM.
Regarding `CC(C)C[C@H](NC(=O)[C@@H](CCCCNC(=O)C1=C[C@@H](O)[C@@H](O)[C@H](O)C1)NC(=O)[C@H](Cc1ccc(O)cc1)N(C)C(=O)[C@H](CO)NC(=O)[C@@H](Cc1cccnc1)NC(=O)[C@@H](Cc1ccc(Cl)cc1)NC(=O)[C@@H](Cc1ccc2ccccc2c1)N1CCCCC1=O)C(=O)N[C@@H](CCCNC(=N)N)C(=O)N1CCC[C@H]1C(=O)N[C@H](C)C(N)=O` [Example 8, 6LactD2Nal^1 -D4ClPhe^2 -D3Pal^3 -Ser^4 -NMeTyr^5 -DLys(N-epsilon-Shik)^6 -Leu^7 -Arg^8 -Pro^9 -DAla^10 NH2] ({d2Nal(N,N-C(O)(CH2)4)}-[dPhe(4-Cl)][d3Pal]S[NMeY][dK](Shikimoyl)LRP[dA]-NH2), the Kb is 0.0129 nM.
To `CC(C)C[C@H](NC(=O)[C@@H](CCCCNC(=O)CNC(=O)C1=C[C@@H](O)[C@@H](O)[C@H](O)C1)NC(=O)[C@H](Cc1ccc(O)cc1)N(C)C(=O)[C@H](CO)NC(=O)[C@@H](Cc1cccnc1)NC(=O)[C@@H](Cc1ccc(Cl)cc1)NC(=O)[C@@H](Cc1ccc2ccccc2c1)N1CCCCC1=O)C(=O)N[C@@H](CCCNC(=N)N)C(=O)N1CCC[C@H]1C(=O)N[C@H](C)C(N)=O` [Example 9, 6LactD2Nal^1 -D4ClPhe^2 -D3Pal^3 -Ser^4 -NMeTyr^5 -DLys(N-epsilon-Gly-Shik)^6 -Leu^7 -Arg^8 -Pro^9 -DAla^10 NH2] ({d2Nal(N,N-C(O)(CH2)4)}-[dPhe(4-Cl)][d3Pal]S[NMeY][dK]([Gly-Shikimoyl])LRP[dA]-NH2) belongs 0.0355 nM; to `CC(C)C[C@H](NC(=O)[C@@H](CCCCNC(=O)C1=C[C@@H](O)[C@@H](O)[C@H](O)C1)NC(=O)[C@H](Cc1ccc(O)cc1)N(C)C(=O)[C@H](CO)NC(=O)[C@@H](Cc1cccnc1)NC(=O)[C@@H](Cc1ccc(Cl)cc1)NC(=O)[C@@H](Cc1ccc2ccccc2c1)N1CCCCC1=O)C(=O)N[C@@H](CCCCNC(=N)N)C(=O)N1CCC[C@H]1C(=O)N[C@H](C)C(N)=O` [Example 10, 6LactD2Nal^1 -D4ClPhe^2 -D3Pal^3 -Ser^4 -NMeTyr^5 -DLys(N-epsilon-Shik)^6 -Leu^7 -Harg^8 -Pro^9 -DAla^10 NH2] ({d2Nal(N,N-C(O)(CH2)4)}-[dPhe(4-Cl)][d3Pal]S[NMeY][dK](Shikimoyl)L[hArg]P[dA]-NH2), 0.0209 nM.
To `CC(C)C[C@H](NC(=O)[C@@H](CCCCNC(=O)CNC(=O)C1=C[C@@H](O)[C@@H](O)[C@H](O)C1)NC(=O)[C@H](Cc1ccc(O)cc1)N(C)C(=O)[C@H](CO)NC(=O)[C@@H](Cc1cccnc1)NC(=O)[C@@H](Cc1ccc(Cl)cc1)NC(=O)[C@@H](Cc1ccc2ccccc2c1)N1CCCCC1=O)C(=O)N[C@@H](CCCCNC(=N)N)C(=O)N1CCC[C@H]1C(=O)N[C@H](C)C(N)=O` [Example 11, 6LactD2Nal^1 -D4ClPhe^2 -D3Pal^3 -Ser^4 -NMeTyr^5 -DLys(N-epsilon-Gly-Shik)^6 -Leu^7 -Harg^8 -Pro^9 -DAla^10 NH2] ({d2Nal(N,N-C(O)(CH2)4)}-[dPhe(4-Cl)][d3Pal]S[NMeY][dK]([Gly-Shikimoyl])L[hArg]P[dA]-NH2) belongs 0.0209 nM.
The same measure for `CC(C)C[C@H](NC(=O)[C@@H](CCCCNC(N)=O)NC(=O)[C@H](Cc1ccc(O)cc1)NC(=O)[C@H](CO)NC(=O)[C@@H](Cc1cccnc1)NC(=O)[C@@H](Cc1ccc(Cl)cc1)NC(=O)[C@@H](Cc1ccc2ccccc2c1)N1CCCC1=O)C(=O)N[C@@H](CCCCNC(C)C)C(=O)N1CCC[C@H]1C(=O)N[C@H](C)C(N)=O` [Example 12, 5LactD2Nal^1 -D4ClPhe^2 -D3Pal^3 -Ser^4 -Tyr^5 -DHcit^6 -Leu^7 -Lys(isp)^8 -Pro^9 -DAla^10NH2] ({d2Nal(N,N-(CH2)3CO)}-[dPhe(4-Cl)][d3Pal]SY[d(hCit)]L[Lys(iPr)]P[dA]-NH2): 0.0178 nM.
Consider `CC(C)C[C@H](NC(=O)[C@@H](CCCCNC(=O)c1cccnc1)NC(=O)[C@H](Cc1ccc(O)cc1)N(C)C(=O)[C@H](CO)NC(=O)[C@@H](Cc1cccnc1)NC(=O)[C@@H](Cc1ccc(Cl)cc1)NC(=O)[C@@H](Cc1ccc2ccccc2c1)N1CCCCC1=O)C(=O)N[C@@H](CCCCNC(C)C)C(=O)N1CCC[C@H]1C(=O)N[C@H](C)C(N)=O` [Example 13, 6LactD2Nal^1 -D4ClPhe^2 -D3Pal^3 -Ser^4 -NMeTyr^5 -DLys(N-epsilon-Nic)^6 -Leu^7 -Lys(N-epsilon-Isopropyl)^8 -Pro^9 -DAla^10 NH2] ({d2Nal(N,N-C(O)(CH2)4)}-[dPhe(4-Cl)][d3Pal]S[NMeY][dK](Nicotinoyl)L[Lys(iPr)]P[dA]-NH2), for which the Kb is 0.0178 nM.

In general, Kb refers to the affinity of an antagonist, worked out from how it opposes an agonist.
